Assay results: patent publication US20060142291A1, “Use of formaldehyde and formaldehyde-releasing compounds in a composition for controlling mycobacteria” (priority 2004, published 2006)

Key:
Assay in all cases: Activity of bactericidal solutions against mycobacteria (MIC, 7H9 liquid medium, turbidity and streaking on 7H10 agar)
Format in all cases: cell-based
M. terrae ATCC 15755 = conditions: ATCC 15755, 37° C., 3 weeks incubation, % by weight
M. chelonae ATCC 35725 = conditions: for Activity at MIC (%) M. chelonae (28° C.): ATCC 35725, 28° C., 3 weeks incubation, % by weight
M. chelonae ATCC 19236 = conditions: ATCC 19236, 37° C., 3 weeks incubation, % by weight
[1] = system: M. immunogenum ATCC 700505; conditions: 3 weeks incubation, % by weight; for Activity at MIC (%) M. immunogenum (28° C.): ATCC 700505, 28° C.; for Activity at MIC (%) M. immunogenum (37° C.): ATCC 700505, 37° C.

| Structure (SMILES) | Activity at MIC (%) M. terrae (37° C.) (M. terrae ATCC 15755) [%] | Activity at MIC (%) M. chelonae (28° C.) (M. chelonae ATCC 35725) [%] | usage concentration active against M. chelonae (M. chelonae ATCC 35725; strain and temperature not stated) [% by weight] | Activity at MIC (%) M. chelonae (37° C.) (M. chelonae ATCC 19236) [%] | Activity at MIC (%) M. immunogenum (28° C.) [1] | Activity at MIC (%) M. immunogenum (37° C.) [1] |
| --- | --- | --- | --- | --- | --- | --- |
| OCCN1CN(CCO)CN(CCO)C1 [Comparison 1, 2,2′,2″-(hexahydro-1,3,5-triazine-1,3,5-triyl)triethanol] | 0.3 | 0.3 | 0.3 | 0.3 | ≦0.075% | ≦0.075% |
| CCCCCCCCn1sccc1=O [Comparison 2, 2-octyl-3(2H)-isothiazol-3-one] | >0.3 | >0.3 | – | >0.3 | >0.3% | >0.3% |
